Reference: the NIST ThermoML archive (doi:10.1021/acs.jced.7b00483)
± gives the expanded uncertainty stated by the source.

Experiment: molar heat capacity at constant pressure
Settings: 100 kPa, Liquid, Flow calorimetry

O [water]
Settings | molar heat capacity at constant pressure [J/K/mol]
298.15 K | 75.66 ± 0.16
303.15 K | 75.57 ± 0.16
308.15 K | 75.54 ± 0.16
313.15 K | 75.5 ± 0.16
318.15 K | 75.47 ± 0.16
323.15 K | 75.45 ± 0.16
328.15 K | 75.45 ± 0.16
333.15 K | 75.47 ± 0.16
338.15 K | 75.5 ± 0.16
343.15 K | 75.57 ± 0.16
348.15 K | 75.66 ± 0.16
353.15 K | 75.77 ± 0.16
358.15 K | 75.9 ± 0.16
363.15 K | 76.02 ± 0.16
